Measured values reported in patent publication US10067143B2, “Ubiquitination assay” (ITI Scotland Limited, priority 2010, dated 2018).

Target: T1, SCF^Skp2/Cks1
T1 construct: 6His-Skp2-(isoform 1, hu,FL),; GST-Skp1-(hu,FL), 6His-Cul1-; (hu,FL), UT-Rbx1-(hu,FL); 6His-Cks1-(hu,FL); 6His (N); GST (N); made in house
Experiment: 'Live' SCF^Skp2/Cks1 (E3) p27 ubiquitination assay, ECL
Format: biochemical, human
Details: for IC50, E3 (SCF^Skp2/Cks1) assay ECL / shows up as inhibitor in R140 kinase inhibitor panel: 60 minute incubation; for IC50, E3 (SCF^Skp2/Cks1) assay ECL: 25 nM c-Myc p27, 5 nM E1, 1 μM E2, 25 nM E3 tetramer, 25 nM Cks1, 2 μM Ub, 100 μM ATP; for shows up as inhibitor in R140 kinase inhibitor panel / inhibition in E3 assay, panel of 41 inhibitors: final E3 assay conditions; for inhibition in E3 assay, panel of 41 inhibitors: R140 kinase inhibitor panel + PYR-41
Method: FIG. 30 (a): ‘Live’ SCF^Skp2/Cks1 Assay—ECL Inhibitor study—PYR-41 (E1 inhibitor).
FIG. 32: ‘Live’ SCF^Skp2/Cks1 Assay—ECL R140 Kinase inhibit or panel. Used 60 minute incubation; 25 nM c-Myc p27; anti-c-Myc capture for p27 (Millipore 05-274, 1/500); 5 nM E1; 1 μM E2 (HA); 25 nM E3 tetramer; 25 nM Cks1; 2 μM Ub; 100 μM ATP; streptavidin sulfo tag (MSD, R32AD-1, 1 μg/ml).
FIG. 34: ‘Live’ SCF^Skp2/Cks1 Assay—ECL follow up IC50s. Used 60 minute incubation; 25 nM c-Myc p27; anti c-Myc capture for p27 (Millipore 05-274, 1/500); 5 nM E1; 1 μM E2 (HA); 25 nM E3 tetramer; 25 nM Cks1; 2 μM Ub; 100 μM ATP; streptavidin sulfo tag (MSD, R32AD-1, 1 μg/ml). Titration of PYR41 (Calbiochem 662105) from 300 μM to 10 nM (control). Titration of Rottlerin, EGCG, AG538 and K252c from 300 μM to 10 nM.
Each of the assays in the p27 ubiquitination cascade (E1, E2 and E3) were tested against the E1 inhibitor PYR-41. No pre-charging of either the E1 or E2 was carried out prior to the introduction of the compound although in the E3 assay, p27 phosphorylation by CDK2/Cyclin E was carried out in the absence of inhibitor.
In order to test the feasibility of screening the E3 assay against a range of inhibitors, the assay was tested against a panel of 41 inhibitors (40 known kinase inhibitors and PYR-41) (FIG. 31). […] Using the same assay conditions, the E3 assay was tested against these inhibitors (FIG. 33).

T1 sequence (Q13309 whole entry, canonical isoform): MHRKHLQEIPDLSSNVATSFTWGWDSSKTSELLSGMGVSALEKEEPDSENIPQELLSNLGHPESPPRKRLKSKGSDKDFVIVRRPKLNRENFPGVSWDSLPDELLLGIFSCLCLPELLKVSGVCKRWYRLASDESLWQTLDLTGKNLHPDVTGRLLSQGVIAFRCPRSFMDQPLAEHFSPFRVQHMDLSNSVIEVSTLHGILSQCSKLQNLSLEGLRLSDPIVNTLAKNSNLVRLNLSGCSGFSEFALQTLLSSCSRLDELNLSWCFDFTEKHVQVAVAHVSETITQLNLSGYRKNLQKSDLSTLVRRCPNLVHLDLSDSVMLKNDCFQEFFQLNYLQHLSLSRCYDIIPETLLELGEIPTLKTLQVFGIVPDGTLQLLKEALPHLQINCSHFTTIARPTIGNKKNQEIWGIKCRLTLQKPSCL
T1 sequence (P63208 1-160 isoform P63208-2, further chain): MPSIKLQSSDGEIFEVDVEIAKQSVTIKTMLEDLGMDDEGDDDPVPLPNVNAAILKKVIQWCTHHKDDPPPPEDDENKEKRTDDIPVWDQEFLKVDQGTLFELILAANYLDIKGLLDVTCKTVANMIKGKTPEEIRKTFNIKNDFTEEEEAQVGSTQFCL
T1 sequence (Q13616 whole entry, further chain, canonical isoform): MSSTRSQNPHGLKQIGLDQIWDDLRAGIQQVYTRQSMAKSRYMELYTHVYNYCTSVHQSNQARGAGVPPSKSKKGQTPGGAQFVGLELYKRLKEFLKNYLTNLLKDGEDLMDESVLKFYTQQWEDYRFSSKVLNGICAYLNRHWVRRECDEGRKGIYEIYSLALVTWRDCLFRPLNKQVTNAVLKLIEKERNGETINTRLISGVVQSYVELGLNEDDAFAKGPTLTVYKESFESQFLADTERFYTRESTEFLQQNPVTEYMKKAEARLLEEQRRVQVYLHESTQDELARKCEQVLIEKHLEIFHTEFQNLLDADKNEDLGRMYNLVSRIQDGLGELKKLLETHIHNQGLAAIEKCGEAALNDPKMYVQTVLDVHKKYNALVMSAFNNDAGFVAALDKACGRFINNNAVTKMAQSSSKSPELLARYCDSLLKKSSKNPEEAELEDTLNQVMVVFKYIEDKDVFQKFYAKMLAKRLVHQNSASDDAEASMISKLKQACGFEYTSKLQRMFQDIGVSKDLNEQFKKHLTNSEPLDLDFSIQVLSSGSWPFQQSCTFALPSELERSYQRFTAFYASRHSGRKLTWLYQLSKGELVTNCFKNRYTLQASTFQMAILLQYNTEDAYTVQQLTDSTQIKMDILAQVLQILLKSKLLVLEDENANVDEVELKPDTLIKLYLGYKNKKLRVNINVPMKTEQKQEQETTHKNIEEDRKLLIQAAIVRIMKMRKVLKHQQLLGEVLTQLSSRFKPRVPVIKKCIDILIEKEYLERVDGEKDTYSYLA
T1 sequence (P62877 whole entry, further chain, canonical isoform): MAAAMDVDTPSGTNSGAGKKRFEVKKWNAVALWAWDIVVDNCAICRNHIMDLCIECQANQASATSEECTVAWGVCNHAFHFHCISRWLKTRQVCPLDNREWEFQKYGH
T1 sequence (P61024 whole entry, further chain, canonical isoform): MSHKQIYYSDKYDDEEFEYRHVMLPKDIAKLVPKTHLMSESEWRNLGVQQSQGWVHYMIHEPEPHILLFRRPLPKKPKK

SMILES	IC50, E3 (SCF^Skp2/Cks1) assay ECL	shows up as inhibitor in R140 kinase inhibitor panel	inhibition in E3 assay, panel of 41 inhibitors
O=C(O[C@@H]1Cc2c(O)cc(O)cc2O[C@@H]1c1cc(O)c(O)c(O)c1)c1cc(O)c(O)c(O)c1 [EGCG]	in the μM range	show up as inhibitors	moderate amounts of inhibition
CC(=O)c1c(O)c(C)c(O)c(Cc2c(O)c3c(c(C(=O)/C=C/c4ccccc4)c2O)OC(C)(C)C=C3)c1O [Rottlerin]	in the μM range	show up as inhibitors	moderate amounts of inhibition
CCOC(=O)c1ccc(N2NC(=O)/C(=C/c3ccc([N+](=O)[O-])o3)C2=O)cc1 [PYR-41]			> 80%
N#C/C(=C\c1ccc(O)c(O)c1)C(=O)c1ccc(O)c(O)c1 [AG538]		show up as inhibitors	
O=C1NCc2c1c1c3ccccc3[nH]c1c1[nH]c3ccccc3c21 [K252c]	false positive	show up as inhibitors	moderate amounts of inhibition
